Data taken from patent US9822126B1, “Substituted 1,2,3-triazol-1-yl-methyl-2,3-dihydro-2-methyl-6-nitroimidazo[2,1-b]oxazoles as anti-mycobacterial agents and a process for the preparation thereof” (priority 2014, dated 2017).
Converted amounts (≈) assume the structure as drawn. Where two headings read alike, the source gives them in different places.

What was measured:
Format in all cases: cell-based
[1] = system: M. tuberculosis H37Rv (ATCC 27294); experiment: MIC by broth dilution against M. tuberculosis H37Rv (replicating); conditions: Mycobacterium tuberculosis
[2] = system: non-replicating stages of M. tuberculosis; experiment: MIC against non-replicating M. tuberculosis; conditions: Mycobacterium tuberculosis, read-out: MIC Non-replicating strain
[3] = system: macrophage J774 cells line; experiment: Cytotoxicity assay (MTT) in macrophage J774 cells; conditions: macrophage J774, 24 hrs incubation, tested at 40 μg/ml
Description: The study was carried out using macrophage J774 cells line (ATCC-USA). Cells were grown in Rosewell Park Memorial Institute Medium (RPMI) containing 10% fetal calf serum (FCS) and supplemented with 75 mg/liter penicillin, 100 mg/liter streptomycin, 110 mg/liter Sodium pyruvate, 2.38 gm/liter HEPES, 0.05 mM 2 β-mercaptoethanol, and 2 gm/liter NaHCO3, in a humidified atmosphere in 5% CO2 at 37° C., and were sub-cultured at 1:4 ratio once a week.
Cells were plated at a density of 3×10^4 cells/cm^2 and maintained in culture medium for 12 hours. Cells were seeded onto 96-well flat bottom plates and FCS was reduced to 5% for the experiment. Stock solutions of compounds 9 to 37 were prepared fresh to avoid oxidation. Cells were incubated with the compounds (40 μg/ml) for 24 hrs.
After the completion of incubation, the medium was removed and cell viability was evaluated by assaying for the ability of functional mitochondria to catalyze the reduction of 3-(4,5-dimethylthiazol-2-yl)-2,5-diphenyltetrazolium bromide (MTT) to form formazan salt by mitochondrial dehydrogenases, and determined by Elisa reader at 450 nm (Multiskan Spectrum; Thermo Electron Corporation, USA). Percentage cytotoxicity was calculated with respect to the untreated cells.

[4] = 504 h, broth dilution, 37° C. for 3-weeks, read visually, replicating stage, read-out: MIC M. tb H37Rv

| SMILES | MIC [1, 4] | MIC [2] | Cytotoxicity [3] | MIC ([1]; read-out: MIC value) |
| --- | --- | --- | --- | --- |
| C[C@]1(Cn2cc(-c3ccc(Oc4ccccc4)cc3)nn2)Cn2cc([N+](=O)[O-])nc2O1 [I6, (R)-2-Methyl-6-nitro-2-((4-(4-phenoxyphenyl)-1H-1,2,3-triazol-1-yl)methyl)-2,3-dihydroimidazo[2,1-b]oxazole] | 2 µg/mL (≈ 4.78 µM) | 2 µg/mL (≈ 4.78 µM) | >40 µg/mL |  |
| Cc1ccc(OCCc2cn(C[C@@]3(C)Cn4cc([N+](=O)[O-])nc4O3)nn2)cc1 [I21, (R)-2-Methyl-6-nitro-2-((4-(2-(p-tolyloxy)ethyl)-1H-1,2,3-triazol-1-yl)methyl)-2,3-dihydroimidazo[2,1-b]oxazole] | 0.25 µg/mL (≈ 0.65 µM) | 0.25 µg/mL (≈ 0.65 µM) | >40 µg/mL | < 1 µg/mL |
| C[C@]1(Cn2cc(-c3ccc(C(F)(F)F)cc3)nn2)Cn2cc([N+](=O)[O-])nc2O1 [I2, (R)-2-Methyl-6-nitro-2-((4-(4-(trifluoromethyl)phenyl)-1H-1,2,3-triazol-1-yl)methyl)-2,3-dihydroimidazo[2,1-b]oxazole] | 2 µg/mL (≈ 5.07 µM) | 8 µg/mL (≈ 20.3 µM) | >40 µg/mL |  |
| C[C@]1(Cn2cc(-c3ccc(F)cc3)nn2)Cn2cc([N+](=O)[O-])nc2O1 [I3, (R)-2-((4-(4-Fluorophenyl)-1H-1,2,3-triazol-1-yl)methyl)-2-methyl-6nitro-2,3-dihydro imidazo[2,1-b]oxazole] | 1 µg/mL (≈ 2.9 µM) | 2 µg/mL (≈ 5.81 µM) | >40 µg/mL |  |
| C[C@]1(Cn2cc(COc3ccc(Br)cc3)nn2)Cn2cc([N+](=O)[O-])nc2O1 [I11, (R)-2-((4-((4-Bromophenoxy)methyl)-1H-1,2,3-triazol-1-yl)methyl)-2-methyl-6-nitro-2,3-dihydroimidazo[2,1-b]oxazole] | 0.12 µg/mL (≈ 0.276 µM) | 0.25 µg/mL (≈ 0.574 µM) | >40 µg/mL | < 1 µg/mL |
| Cc1ccc(SCc2cn(C[C@@]3(C)Cn4cc([N+](=O)[O-])nc4O3)nn2)cc1 [I20, (R)-2-Methyl-6-nitro-2-((4-((p-tolylthio)methyl)-1H-1,2,3-triazol-1-yl)methyl)-2,3-dihydroimidazo[2,1-b]oxazole] | 2 µg/mL (≈ 5.18 µM) | 1 µg/mL (≈ 2.59 µM) | >40 µg/mL |  |
| C[C@]1(Cn2cc(COc3cccc(F)c3)nn2)Cn2cc([N+](=O)[O-])nc2O1 [I16, (R)-2-((4-((3-Fluorophenoxy)methyl)-1H-1,2,3-triazol-1-yl)methyl)-2-methyl-6-nitro-2,3-dihydroimidazo[2,1-b]oxazole] | 1 µg/mL (≈ 2.67 µM) | 2 µg/mL (≈ 5.34 µM) | >40 µg/mL |  |
| Cc1ccc(OCc2cn(C[C@@]3(C)Cn4cc([N+](=O)[O-])nc4O3)nn2)cc1 [I12, (R)-2-Methyl-6-nitro-2-((4-((p-tolyloxy)methyl)-1H-1,2,3-triazol-1-yl)methyl)-2,3-dihydroimidazo[2,1-b]oxazole] | 1 µg/mL (≈ 2.7 µM) | 2 µg/mL (≈ 5.4 µM) | >40 µg/mL |  |
| CCCCCc1cn(C[C@@]2(C)Cn3cc([N+](=O)[O-])nc3O2)nn1 [I7, (R)-2-[(4-Pentyl-1H-1,2,3-triazol-1-yl)methyl]-2,3-dihydro-2-methyl-6-nitroimidazo[2,1-b]oxazole] | 2 µg/mL (≈ 6.24 µM) | 4 µg/mL (≈ 12.5 µM) | >40 µg/mL |  |
| CCc1ccc(OCc2cn(C[C@@]3(C)Cn4cc([N+](=O)[O-])nc4O3)nn2)cc1 [I15, (R)-2-((4-((4-Ethylphenoxy)methyl)-1H-1,2,3-triazol-1-yl)methyl)-2-methyl-6-nitro-2,3-dihydroimidazo[2,1-b]oxazole] | 2 µg/mL (≈ 5.2 µM) | 2 µg/mL (≈ 5.2 µM) | >40 µg/mL |  |
| C[C@]1(Cn2cc(CN3CCOCC3)nn2)Cn2cc([N+](=O)[O-])nc2O1 [I22, (R)-2-Methyl-2-((4-(morpholinomethyl)-1H-1,2,3-triazol-1-yl)methyl)-6-nitro-2,3-dihydroimidazo[2,1-b]oxazole] | 2 µg/mL (≈ 5.72 µM) | 1 µg/mL (≈ 2.86 µM) | >40 µg/mL |  |
| CC(C)c1ccc(OCc2cn(C[C@@]3(C)Cn4cc([N+](=O)[O-])nc4O3)nn2)cc1 [I18, (R)-2-((4-((4-Isopropylphenoxy)methyl)-1H-1,2,3-triazol-1-yl)methyl)-2-methyl-6-nitro-2,3-dihydroimidazo[2,1-b]oxazole] | 0.5 µg/mL (≈ 1.25 µM) | 1 µg/mL (≈ 2.51 µM) | >40 µg/mL | < 1 µg/mL |
| Cc1cccc(OCc2cn(C[C@@]3(C)Cn4cc([N+](=O)[O-])nc4O3)nn2)c1 [I13, (R)-2-Methyl-6-nitro-2-((4-((m-tolyloxy)methyl)-1H-1,2,3-triazol-1-yl)methyl)-2,3-dihydroimidazo[2,1-b]oxazole] | 0.5 µg/mL (≈ 1.35 µM) | 0.5 µg/mL (≈ 1.35 µM) | >40 µg/mL | < 1 µg/mL |
| Cc1ccccc1OCc1cn(C[C@@]2(C)Cn3cc([N+](=O)[O-])nc3O2)nn1 [I14, (R)-2-Methyl-6-nitro-2-((4-((o-tolyloxy)methyl)-1H-1,2,3-triazol-1-yl)methyl)-2,3-dihydroimidazo[2,1-b]oxazole] | 0.5 µg/mL (≈ 1.35 µM) | 2 µg/mL (≈ 5.4 µM) | >40 µg/mL | < 1 µg/mL |
| C[C@]1(Cn2cc(-c3ccc(F)cc3F)nn2)Cn2cc([N+](=O)[O-])nc2O1 [I5, (R)-2-((4-(2,4-Difluorophenyl)-1H-1,2,3-triazol-1-yl)methyl)-2-methyl-6-nitro-2,3-dihydroimidazo[2,1-b]oxazole] | 1 µg/mL (≈ 2.76 µM) | 8 µg/mL (≈ 22.1 µM) | >40 µg/mL |  |
| C[C@]1(Cn2cc(COc3ccc(OC(F)(F)F)cc3)nn2)Cn2cc([N+](=O)[O-])nc2O1 [I8, (R)-2-Methyl-6-nitro-2-((4-((4-(trifluoromethoxy)phenoxy)methyl)-1H-1,2,3-triazol-1-yl)methyl)-2,3-dihydroimidazo[2,1-b]oxazole] | 2 µg/mL (≈ 4.54 µM) | 4 µg/mL (≈ 9.08 µM) | >40 µg/mL |  |
| C[C@]1(Cn2cc(COc3ccc(C(F)(F)F)cc3)nn2)Cn2cc([N+](=O)[O-])nc2O1 [I9, (R)-2-Methyl-6-nitro-2-((4-((4-(trifluoromethyl)phenoxy)methyl)-1H-1,2,3-triazol-1-yl)methyl)-2,3-dihydroimidazo[2,1-b]oxazole] | 1 µg/mL (≈ 2.36 µM) | 2 µg/mL (≈ 4.71 µM) | >40 µg/mL |  |
| Cc1cc(-c2cn(C[C@@]3(C)Cn4cc([N+](=O)[O-])nc4O3)nn2)ccc1F [I4, (R)-2-((4-(4-Fluoro-3-methylphenyl)-1H-1,2,3-triazol-1-yl)methyl)-2-methyl-6-nitro-2,3-dihydroimidazo[2,1-b]oxazole] | 2 µg/mL (≈ 5.58 µM) | 4 µg/mL (≈ 11.2 µM) | >40 µg/mL |  |
| C[C@]1(Cn2cc(COc3ccccc3F)nn2)Cn2cc([N+](=O)[O-])nc2O1 [I17, (R)-2-((4-((2-Fluorophenoxy)methyl)-1H-1,2,3-triazol-1-yl)methyl)-2-methyl-6-nitro-2,3-dihydroimidazo[2,1-b]oxazole] | 0.25 µg/mL (≈ 0.668 µM) | 0.5 µg/mL (≈ 1.34 µM) | >40 µg/mL | < 1 µg/mL |
| C[C@]1(Cn2cc(COc3cccc(Cl)c3)nn2)Cn2cc([N+](=O)[O-])nc2O1 [I10, (R)-2-((4-((3-Chlorophenoxy)methyl)-1H-1,2,3-triazol-1-yl)methyl)-2-methyl-6-nitro-2,3-dihydroimidazo[2,1-b]oxazole] | 0.5 µg/mL (≈ 1.28 µM) | 1 µg/mL (≈ 2.56 µM) | >40 µg/mL | < 1 µg/mL |
| C[C@]1(Cn2cc(COc3ccccn3)nn2)Cn2cc([N+](=O)[O-])nc2O1 [I19, (R)-2-Methyl-6-nitro-2-((4-((pyridin-2-yloxy)methyl)-1H-1,2,3-triazol-1-yl)methyl)-2,3-dihydroimidazo[2,1-b]oxazole] | 1 µg/mL (≈ 2.8 µM) | 2 µg/mL (≈ 5.6 µM) | >40 µg/mL |  |
| C[C@]1(Cn2cc(-c3ccc(OC(F)(F)F)cc3)nn2)Cn2cc([N+](=O)[O-])nc2O1 [I1, (R)-2-Methyl-6-nitro-2-((4-(4-(trifluoromethoxy)phenyl)-1H-1,2,3-triazol-1-yl)methyl)-2,3-dihydroimidazo[2,1-b]oxazole] | 2 µg/mL (≈ 4.87 µM) | 4 µg/mL (≈ 9.75 µM) | >40 µg/mL |  |
